Source: patent US4041038A, “1-(3-Phenylpropyl)-4-(beta-alkoxyacryloyl)piperazine derivatives” (Kyorin Pharmaceutical Co., Ltd., priority 1975, dated 1977)

Tests used:
[1] = 50% anesthetic dose in mice (i.v.); format: in vivo, mouse; conditions: for selectivity ratio: in vivo, read-out: LD50/AD50; for selectivity ratio / ED50: iv, mouse, i.v.; for ED50: read-out: AD50 (50% anesthetic dose)
Excerpt: (§1) The compounds included in this invention are useful as general anesthetics.

[2] = 50% anesthetic dose in rats (i.v.); format: in vivo, rat; conditions: for selectivity ratio: in vivo, read-out: LD50/AD50; for selectivity ratio / ED50: iv, rat, i.v.; for ED50: read-out: AD50 (50% anesthetic dose)
Excerpt: as §1

[3] = 50% lethal dose in mice (i.v.); conditions: in vivo, iv, mouse
Excerpt: as §1

[4] = 50% lethal dose in rats (i.v.); conditions: in vivo, iv, rat
Excerpt: as §1

[5] = anesthesia, sleeping time and post-anesthetic recovery in rabbits (i.v.); format: in vivo, rabbit
Description: In rabbits, KA-100 caused an anesthesia at the doses of more than 10 mg/kg (i.v.), and the sleeping times at 20 and 30 mg/kg were 20 min. and more than 20 min. respectively.
(§2) Thiopental-Na caused an anesthesia lasted for 13 min. after injection of 20 mg/kg and 30 min. after 30 mg/kg.

[6] = system: withdrawal reflex against nociceptive stimuli; assay: withdrawal reflex against nociceptive stimuli (pinching of hind leg toes, small incision of abdomen) in rabbits; format: in vivo, rabbit; conditions: for anti-nociceptive activity: same doses for KA-100 and thiopental-Na
Description: as §2

extension of hind legs = assay: reflex against extension of hind legs / muscular relaxation in rabbits; format: in vivo, rabbit; conditions: for muscular relaxant activity / muscular rigidity: same doses for KA-100 and thiopental-Na
Description: as §2

solubility in water = format: physicochemical; conditions: maleate, nearly physiological pH (pH 6)
[7] = disturbance of blood vessels; conditions: maleate

SMILES	selectivity ratio [1]	ED50 [1] [mg/kg]	anesthetic effect ([1]; mice)	selectivity ratio [2]	ED50 [2] [mg/kg]	anesthetic effect ([2]; rats)	LD50 [3] [mg/kg]	LD50 [4] [mg/kg]	anesthetic effect [5]	sleeping time / duration of anesthesia ([5]; 20 mg/kg) [min]	sleeping time / duration of anesthesia ([5]; 30 mg/kg)	pharmacological potency ([5]; KA-100 and thiopental-Na compared)	minimal effective dose ([5]; Oryctolagus cuniculus, iv, read-out: doses that caused an anesthesia) [mg/kg]	recovery from ataxic state in post-anesthetic period ([5]; compared with thiopental-Na)	withdrawal reflex against nociceptive stimuli ([6]; more than 20 mg/kg)	anti-nociceptive activity [6]	reflex against extension of hind legs (extension of hind legs; more than 20 mg/kg)	muscular relaxant activity / muscular rigidity (extension of hind legs)	solubility in water (solubility in water)	disturbance of blood vessels [7]
CCOC=CC(=O)N1C[C@H](C)N(CCCc2ccccc2)C[C@H]1C.O=C(O)/C=C\C(=O)O (relative stereo) [KA-100, trans-1-(3-phenylpropyl)-2,5-dimethyl-4-(β-ethoxyacryloyl)piperazine maleate]	4.9	7.6	good anesthetic effect	12.6	4.8	good anesthetic effect	37.3	60.2	good anesthetic effect	20	more than 20 min.	practically equal	> 10	far more rapid	lost the withdrawal reflex against nociceptive stimuli	anti-nociceptive	lost the withdrawal reflex against nociceptive stimuli (pinching of hind leg toes by a forceps or small incision of abdomen) and against extension of hind legs	muscular relaxant activity	soluble in water	does not disturb blood vessels
CCCC(C)C1(CC)C(=O)NC(=S)NC1=O (stereo not drawn) [Thiopental-Na, reference compound]	4.3	20.9		7.5	10.7		90.9	80.3		13	30 min					no anti-nociceptive effect		induced muscular rigidity		
